Numbers after ± are expanded uncertainties.
Conditions: Liquid

COC(C)(C)C [2-methoxy-2-methylpropane]
Brillouin light scattering
Conditions | speed of sound [m/s]
303.11 K, 7000 kPa | 1078.5 ± 11
303.12 K, 10000 kPa | 1093.4 ± 11
303.13 K, 1000 kPa | 1023.2 ± 10
303.15 K, 2500 kPa | 1035.3 ± 10
303.15 K, 8500 kPa | 1086.9 ± 11
303.2 K, 4000 kPa | 1045.4 ± 10
303.2 K, 5500 kPa | 1058.1 ± 11
308.06 K, 2500 kPa | 1018.4 ± 10
308.11 K, 10000 kPa | 1080 ± 11
308.12 K, 4000 kPa | 1025.3 ± 10
308.13 K, 5500 kPa | 1037.2 ± 10
308.13 K, 8500 kPa | 1064.6 ± 11
308.23 K, 1000 kPa | 1003.3 ± 10
308.24 K, 7000 kPa | 1052.5 ± 11
313.09 K, 1000 kPa | 975 ± 9.8
313.1 K, 2500 kPa | 990.3 ± 10
313.13 K, 7000 kPa | 1034.7 ± 10
313.15 K, 4000 kPa | 1007 ± 10
313.17 K, 10000 kPa | 1051.6 ± 11
313.2 K, 5500 kPa | 1018.3 ± 10
313.24 K, 8500 kPa | 1049 ± 11
318.06 K, 8500 kPa | 1020.1 ± 10
318.07 K, 1000 kPa | 959.3 ± 9.7
318.18 K, 7000 kPa | 1012.5 ± 10
318.22 K, 4000 kPa | 985.3 ± 9.9
318.23 K, 2500 kPa | 971.4 ± 9.8
318.24 K, 5500 kPa | 996.7 ± 10
318.25 K, 10000 kPa | 1040 ± 11
323.07 K, 10000 kPa | 1016.8 ± 10
323.12 K, 8500 kPa | 1006.1 ± 10
323.14 K, 7000 kPa | 987.9 ± 10
323.15 K, 1000 kPa | 932.5 ± 9.4
323.18 K, 2500 kPa | 947.7 ± 9.6
323.21 K, 5500 kPa | 982.2 ± 10
323.25 K, 4000 kPa | 964.9 ± 9.8
328.06 K, 7000 kPa | 971.9 ± 9.8
328.08 K, 1000 kPa | 917 ± 9.3
328.11 K, 2500 kPa | 926.2 ± 9.3
328.13 K, 8500 kPa | 984.6 ± 10
328.14 K, 5500 kPa | 963.3 ± 9.8
328.16 K, 4000 kPa | 942.5 ± 9.5
328.19 K, 10000 kPa | 991.7 ± 10
333.08 K, 1000 kPa | 893.5 ± 9
333.08 K, 2500 kPa | 904.6 ± 9.1
333.12 K, 4000 kPa | 920.6 ± 9.3
333.18 K, 10000 kPa | 978.4 ± 9.9
333.2 K, 5500 kPa | 941.5 ± 9.6
333.21 K, 7000 kPa | 949.1 ± 9.7
333.22 K, 8500 kPa | 967.6 ± 9.9
338.09 K, 1000 kPa | 867.8 ± 8.8
338.11 K, 7000 kPa | 931.3 ± 9.4
338.11 K, 8500 kPa | 941 ± 9.6
338.16 K, 5500 kPa | 922.2 ± 9.4
338.17 K, 10000 kPa | 954.4 ± 9.8
338.22 K, 4000 kPa | 898.7 ± 9.1
338.23 K, 2500 kPa | 884.4 ± 8.9
343.15 K, 7000 kPa | 911.8 ± 9.4
343.18 K, 8500 kPa | 926.4 ± 9.5
343.19 K, 4000 kPa | 883.2 ± 8.9
343.19 K, 5500 kPa | 892.8 ± 9.1
343.2 K, 1000 kPa | 845.4 ± 8.6
343.22 K, 2500 kPa | 868.6 ± 8.8

Brillouin Light Scattering
Conditions | speed of sound [m/s]
303.19 K | 1024.7 ± 10
308.16 K | 988.6 ± 10
313.08 K | 960.4 ± 9.7
318.19 K | 942.7 ± 9.5
323.07 K | 912.4 ± 9.2
328.21 K | 904.7 ± 9.1
333.13 K | 876.8 ± 8.8
338.07 K | 855.1 ± 8.6
343.12 K | 826.3 ± 8.3

Source: the NIST ThermoML archive (doi:10.1021/acs.jced.6b00202)
